Where a name gives a salt, the structure may show the parent alone.

For experiment [1], the system named is spontaneously diabetic mice (KK-Ay/Ta Jcl). In words: Action on hyperglycemia in spontaneously diabetic mice (single administration). Format: in vivo. The conditions noted are these: male KK-Ay/Ta Jcl mice, 10 mg/kg oral, p < 0.01 vs. control (72.5 ± 3.7). The protocol:
Animals: Seven male KK-A^y/Ta Jcl mice for each group (purchased from Nippon Clair) Preparation and Administration of Test Compound: A test compound in a dose as shown in Table 1 was suspended in 0.5% aqueous methyl cellulose solution and was orally administered in a volume of 10 ml/kg. Collection of Blood Samples and Determination of Blood Sugar: Blood was collected from tail veins just before administration of the test compound and also 5 hours after the administration and blood sugar was determined. Method: Tail vein of a mouse was injured by a razor without anesthetization to bleed slightly. The blood (15 μl) was collected and immediately mixed with 135 μl of 0.6 M perchloric acid. Glucose in the supernatant separated by centrifugation (at 1500 g for10 minutes at 4° C. usingacooling centrifuge GS-6KR from Beckmann) was determined by Glucose CII Test Wako (Wako Pure Chemicals). The results are shown in terms of “(% ratio of blood sugar 5 hours after the administration to the blood sugar before the administration)±(standard error)”. The data were subjected to one-way layout analysis of variance and then subjected to multiple comparison of Dunnett type. Difference with p<0.05 was deemed significant.

Experiment [2] deals with primary cultured rat hepatic cells. In words: Inhibition of NECA-stimulated glucose production in primary cultured rat hepatic cells. The experiment is classed as cell-based. The settings on record: primary cultured Wistar rat hepatic cells, NECA 0.1, 1 hour; read-out: IC50 for inhibition of NECA-stimulated glucose release. The protocol: Hepatic cells were separated by a collagenase perfusion method from livers of male rats of Wistar strain and subjected to a primary culture in a William's Medium E containing 5% calf serum, 10^−6 M insulin and 10^−7 M dexamethasone. After 1 day, the hepatic cells were washed with a Krebs-Ringer Bicarbonate buffer (mM) (NaCl 118, KCl 4.8, KH2PO4 1.2, MgSO4 1.2, CaCl2 3.4, HEPES 10, NaHCO3 25) pH 7.4 (KRB) containing 10 mM HEPES and 0.1% bovine serum albumin and KRB was added thereto, then incubated at 37° C. After 30 minutes, NECA (N-ethylcarboxamide adenosine) (final concentration: […]) and a test compound were added thereto at the same time, the mixture was incubated for additional one hour, and the amount of glucose released into the incubation medium was measured.

The target in a further experiment is T1, adenosine A2a receptor (Homo sapiens, UniProt P29274).
T1 construct: purchased Receptor Biology Inc
T1 sequence (P29274 whole entry): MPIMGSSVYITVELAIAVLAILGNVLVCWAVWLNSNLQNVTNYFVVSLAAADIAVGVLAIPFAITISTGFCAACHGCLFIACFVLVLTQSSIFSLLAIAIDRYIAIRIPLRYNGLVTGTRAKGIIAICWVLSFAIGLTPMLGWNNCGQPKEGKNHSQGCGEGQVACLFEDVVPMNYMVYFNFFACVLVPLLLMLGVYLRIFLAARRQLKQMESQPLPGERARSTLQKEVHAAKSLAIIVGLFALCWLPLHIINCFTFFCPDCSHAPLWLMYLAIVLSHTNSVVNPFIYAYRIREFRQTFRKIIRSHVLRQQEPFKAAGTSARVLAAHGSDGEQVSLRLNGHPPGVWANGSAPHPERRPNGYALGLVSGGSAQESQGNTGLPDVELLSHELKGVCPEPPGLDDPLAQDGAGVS
In words: Adenosine A2a receptor binding assay (3H-CGS21680). The conditions noted are these: 3H-CGS21680 binding, membrane over-expressing A2a receptor, Cheng-Prusoff; read-out: inhibition constant (Ki value). On the procedure:
A membrane specimen prepared by over-expression of adenosine A2a receptor was purchased from Receptor Biology Inc., and used to carry out adenosine A2a receptor binding assays. The purchased membrane specimen was suspended at a concentration of 22.2 μg/ml inan incubation buffer (20 mM HEPES, 10 mm MgCl2 and 100 mM NaCl, pH 7.4). To 0.45 ml of this membrane specimen were added 0.25ml of tritium-labeled^3H-CGS21680 (500 nM; 30 Ci/mmol) and 0.025 ml of the test compound. The solution of the test compound was prepared by dissolving the compound at a concentration of 20 mM in DMSO and then successively diluting the solution 10-fold with the incubation buffer. […] Thereafter, the glass fiber filter was transferred to a vial bottle, a scintillator was added thereto, and the radioactivity on the filter was measured by a liquid scintillation counter. The rate of inhibition of (^3H-CGS21680) binding to the A2a receptor by the test compound was calculated using the following equation, and from this rate of inhibition, IC50 was calculated. […]
The total binding amount is ^3H-CGS21680 binding radioactivity in the absence of the test compound. The non-specific binding amount is ^3H-CGS21680 binding radioactivity in the presence of […] of RPIA. The binding amount in the presence of drug is ^3H-CGS21680 binding radioactivity in the presence of the test compound of various concentrations. […]

For experiment [3], the target named is T2, Human adenosine A2b receptor (Homo sapiens, UniProt P29275).
T2 construct: expressed in transfected cells; host or cells: CHOK1 cells
T2 sequence (P29275 1-332): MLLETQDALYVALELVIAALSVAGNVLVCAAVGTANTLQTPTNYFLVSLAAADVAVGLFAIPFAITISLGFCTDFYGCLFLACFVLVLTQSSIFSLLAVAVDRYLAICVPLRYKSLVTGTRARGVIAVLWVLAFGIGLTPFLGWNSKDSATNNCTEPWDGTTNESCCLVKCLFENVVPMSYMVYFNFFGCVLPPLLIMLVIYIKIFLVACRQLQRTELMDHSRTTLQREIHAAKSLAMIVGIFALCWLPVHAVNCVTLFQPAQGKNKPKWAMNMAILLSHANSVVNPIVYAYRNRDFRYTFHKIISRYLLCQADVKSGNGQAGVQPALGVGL
In words: Inhibition of NECA-stimulated cAMP production in receptor-expressing CHOK1 cells. Format: cell-based. The conditions noted are these: CHOK1 cells over-expressing human A2b receptor, NECA 30 nM. The protocol:
Human adenosine A2b receptor cDNA was over-expressed in CHOK1 cells. The cells were uniformly placed on a 24-well plate at a density of 1.5×10^5cells/well, incubated overnight and then used for the assays. Affinity of the test compound for the A2b receptor was evaluated by using, as an index, the rate of suppression of the amount of cAMP produced by stimulation of an adenosine agonist NECA (30 nM) in the presence of the test compound. Thus, the plate was washed twice with 2 ml/well of Krebs-Ringer-Bicarbonate buffer (KRB) (mM) (NaCl 118, KCl 4.8, KH2PO4 1.2, MgSO4 1.2, CaCl2 3.4, HEPES 10, NaHCO3 25, pH 7.4) and then pre-incubated (0.5 ml/well) for 30 minutes. Thereafter, a mixed solution containing 600 μM Ro-20-1724 (phosphodiesterase inhibitor), 180 nM NECA, and a test compound at a concentration 6-times higher than in the reaction solution was added in an amount of […]. After 15 minutes, the reaction was stopped by replacing the reaction solution by 0.1 N HCl (300 μl/well). Measurement of cAMP was carried out using an Amersham cAMP EIA Kit.
The rate of inhibition of NECA-stimulated cAMP production by the test compound was calculated using the following equation: Rate of Inhibition (%)=[1−{(cAMP amount in the presence of NECA and test compound-Basal cAMP amount)/(cAMP amount stimulated only by NECA−Basal cAMP amount)}]×100.
IC50 was calculated from the rate of inhibition.
On the technique in general: Changes in cAMP serve as a functional read-out for many G protein-coupled receptors.

Broadly, the IC50 is the midpoint of a concentration-inhibition curve. A word on the Ki: it is a dissociation constant, usually derived from enzyme kinetics or from competition with a known ligand. For `Cl.Cn1cc(-n2c(-c3cccc(F)c3)nc3c(N)ncnc32)ccc1=O` [Example 5, 5-[6-Amino-8-(3-fluorophenyl)-9H-9-purinyl]-1-methyl-1,2-dihydro-2-pyridinone hdrochloride], the “% ratio of blood sugar 5 hours after the administration to the blood sugar before the administration ± standard error” value in experiment [1] came to 47.3 ± 7.2%. The IC50 turned out to be 7.6 nM in experiment [2] and 11 nM in experiment [3]. Besides, the inhibition constant (Ki) on adenosine A2a receptor turned out to be 3.2 nM.

On to `C=CCn1c(-c2cccc(F)c2)nc2c(N)nc(C#CC3(O)CCC3)nc21` [Example 20, 1-{2-[9-Allyl-6-amino-8-(3-fIuorophenyl)-9H-2-purinyl]-1-ethynyl]}-1-cyclobutanol hydrochloride], for which the half-inhibitory concentration (IC50) in experiment [2] was 8.4 nM. Further, on adenosine A2a receptor, the Ki was determined as 9.6 nM.

Values taken from US6841549B1, “Condensed imidazole compounds and a therapeutic agent for diabetes mellitus” (Eisai Co., Ltd., priority 1999, dated 2005).
